According to ChEMBL document CHEMBL3822389, “New insights into 3-(aminomethyl)naphthoquinones: Evaluation of cytotoxicity, electrochemical behavior and search for structure-activity correlation” (Bioorg Med Chem Lett, 2016):

How the values were obtained:
[1] = Cytotoxicity against human HCT8 cells after 72 hrs by MTT assay; type: functional, cell-based, HCT-8
[2] = Cytotoxicity against human HL60 cells after 72 hrs by MTT assay; type: functional, cell-based, HL-60
MDA-MB-435 = experiment: Cytotoxicity against human MDA-MB-435 cells after 72 hrs by MTT assay; type: functional, cell-based
[3] = Cytotoxicity against human SF295 cells after 72 hrs by MTT assay; type: functional, cell-based, SF-295

CCCCNC(C1=C(O)C(=O)c2ccccc2C1=O)c1cc(Br)ccc1O (centres undefined)
IC50 ([1]; hct-8): > 40 µM
IC50 ([2]; hl-60): > 40 µM
IC50 (MDA-MB-435; Homo sapiens, MDA-MB-435, 72 h): > 40 µM
IC50 ([3]; sf-295): > 40 µM

O=C1C(O)=C(C(NCCCCl)c2ccc(Cl)cc2Cl)C(=O)c2ccccc21 (centres undefined)
IC50 ([1]; Homo sapiens, HCT-8, 72 h): > 40 µM
IC50 ([2]; Homo sapiens, HL-60, 72 h): > 40 µM
IC50 (MDA-MB-435; Homo sapiens, MDA-MB-435, 72 h): > 40 µM
IC50 ([3]; Homo sapiens, SF-295, 72 h): > 40 µM

CCCCCCCNC(C1=C(O)C(=O)c2ccccc2C1=O)c1ccccc1O (centres undefined)
IC50 ([1]; Homo sapiens, HCT-8, 72 h): 19.7 µM
IC50 ([2]; Homo sapiens, HL-60, 72 h): 7.7 µM
IC50 (MDA-MB-435; Homo sapiens, MDA-MB-435, 72 h): 33.3 µM
IC50 ([3]; Homo sapiens, SF-295, 72 h): 18.9 µM

O=C1C(O)=C(C(NCc2ccco2)c2ccccc2O)C(=O)c2ccccc21 (centres undefined)
IC50 ([1]; hct-8): 14.4 µM
IC50 ([2]; Homo sapiens, HL-60, 72 h): 1.1 µM
IC50 (MDA-MB-435; mda-mb-435): 20.2 µM
IC50 ([3]; sf-295): 23.4 µM

COc1cccc2c1C(=O)c1c(O)c3c(c(O)c1C2=O)C[C@@](O)(C(=O)CO)C[C@@H]3O[C@H]1C[C@H](N)[C@H](O)[C@H](C)O1 [DOXORUBICIN]
IC50 ([2]; Homo sapiens, HL-60, 72 h): 0.03 µM
IC50 ([3]; Homo sapiens, SF-295, 72 h): 0.39 µM

CC(C)(C)OC(=O)NCCNCC1=C(O)C(=O)c2ccccc2C1=O
IC50 ([1]; Homo sapiens, HCT-8, 72 h): > 40 µM
IC50 ([2]; Homo sapiens, HL-60, 72 h): > 40 µM
IC50 (MDA-MB-435; Homo sapiens, MDA-MB-435, 72 h): > 40 µM
IC50 ([3]; Homo sapiens, SF-295, 72 h): > 40 µM

CCCCNC(C1=C(O)C(=O)c2ccccc2C1=O)c1ccccc1O (centres undefined) [listing 1 of 2 here]
IC50 ([1]; Homo sapiens, HCT-8, 72 h): > 40 µM
IC50 ([2]; hl-60): > 40 µM
IC50 (MDA-MB-435; Homo sapiens, MDA-MB-435, 72 h): > 40 µM
IC50 ([3]; sf-295): > 40 µM

Cc1ccc(O)c(C(NCc2ccccc2)C2=C(O)C(=O)c3ccccc3C2=O)c1 (centres undefined) [listing 1 of 2 here]
IC50 ([1]; hct-8): 11.3 µM
IC50 ([2]; Homo sapiens, HL-60, 72 h): 7.2 µM
IC50 (MDA-MB-435; mda-mb-435): 15.8 µM
IC50 ([3]; Homo sapiens, SF-295, 72 h): 8.5 µM

O=C1C(O)=C(C(NCCCCl)c2cccc(O)c2)C(=O)c2ccccc21 (centres undefined)
IC50 ([1]; Homo sapiens, HCT-8, 72 h): > 40 µM
IC50 ([2]; Homo sapiens, HL-60, 72 h): > 40 µM
IC50 (MDA-MB-435; Homo sapiens, MDA-MB-435, 72 h): > 40 µM
IC50 ([3]; Homo sapiens, SF-295, 72 h): > 40 µM

O=C1C(O)=C(C(NCc2ccccc2)c2ccccc2O)C(=O)c2ccccc21 (centres undefined) [listing 1 of 2 here]
IC50 ([1]; hct-8): 15.6 µM
IC50 ([2]; Homo sapiens, HL-60, 72 h): 3.9 µM
IC50 (MDA-MB-435; mda-mb-435): 18.9 µM
IC50 ([3]; Homo sapiens, SF-295, 72 h): 23.1 µM

O=C1C(O)=C(C(NCCCCl)c2ccccn2)C(=O)c2ccccc21 (centres undefined)
IC50 ([1]; Homo sapiens, HCT-8, 72 h): > 40 µM
IC50 ([2]; Homo sapiens, HL-60, 72 h): > 40 µM
IC50 (MDA-MB-435; Homo sapiens, MDA-MB-435, 72 h): > 40 µM
IC50 ([3]; Homo sapiens, SF-295, 72 h): > 40 µM

CCCCNC(C1=C(O)C(=O)c2ccccc2C1=O)c1cc(C)ccc1O (centres undefined)
IC50 ([1]; hct-8): 17 µM
IC50 ([2]; hl-60): 6 µM
IC50 (MDA-MB-435; mda-mb-435): 26.5 µM
IC50 ([3]; sf-295): 29.6 µM

CCCCNC(C1=C(O)C(=O)c2ccccc2C1=O)c1cccc(O)c1 (centres undefined)
IC50 ([1]; Homo sapiens, HCT-8, 72 h): > 40 µM
IC50 ([2]; Homo sapiens, HL-60, 72 h): > 40 µM
IC50 (MDA-MB-435; Homo sapiens, MDA-MB-435, 72 h): > 40 µM
IC50 ([3]; Homo sapiens, SF-295, 72 h): > 40 µM

O=C1C(O)=C(C(NCc2ccccc2)c2ccccc2O)C(=O)c2ccccc21 (centres undefined) [listing 2 of 2 here]
IC50 ([1]; Homo sapiens, HCT-8, 72 h): 14.4 µM
IC50 ([2]; hl-60): 4.6 µM
IC50 (MDA-MB-435; Homo sapiens, MDA-MB-435, 72 h): 18.3 µM
IC50 ([3]; sf-295): 11.6 µM

CCCCNC(C1=C(O)C(=O)c2ccccc2C1=O)c1ccccc1O (centres undefined) [listing 2 of 2 here]
IC50 ([1]; hct-8): 20.5 µM
IC50 ([2]; hl-60): 6.5 µM
IC50 (MDA-MB-435; mda-mb-435): 25.6 µM
IC50 ([3]; Homo sapiens, SF-295, 72 h): 33.3 µM

O=C1C(O)=C(C(Nc2ccccc2)c2ccccn2)C(=O)c2ccccc21 (centres undefined)
IC50 ([1]; Homo sapiens, HCT-8, 72 h): > 40 µM
IC50 ([2]; Homo sapiens, HL-60, 72 h): > 40 µM
IC50 (MDA-MB-435; Homo sapiens, MDA-MB-435, 72 h): > 40 µM
IC50 ([3]; Homo sapiens, SF-295, 72 h): > 40 µM

CC(C)(C)OC(=O)NCCNC(C1=C(O)C(=O)c2ccccc2C1=O)c1cccc(O)c1 (centres undefined)
IC50 ([1]; Homo sapiens, HCT-8, 72 h): > 40 µM
IC50 ([2]; Homo sapiens, HL-60, 72 h): > 40 µM
IC50 (MDA-MB-435; Homo sapiens, MDA-MB-435, 72 h): > 40 µM
IC50 ([3]; Homo sapiens, SF-295, 72 h): > 40 µM

O=C1C(O)=C(C(NCc2ccccc2)c2ccc([N+](=O)[O-])cc2)C(=O)c2ccccc21 (centres undefined) [listing 1 of 2 here]
IC50 ([1]; Homo sapiens, HCT-8, 72 h): > 40 µM
IC50 (MDA-MB-435; Homo sapiens, MDA-MB-435, 72 h): > 40 µM

CCCCNC(C1=C(O)C(=O)c2ccccc2C1=O)c1ccc(Cl)cc1Cl (centres undefined) [listing 1 of 2 here]
IC50 ([1]; Homo sapiens, HCT-8, 72 h): > 40 µM
IC50 (MDA-MB-435; Homo sapiens, MDA-MB-435, 72 h): > 40 µM

O=C1C(O)=C(C(NCc2ccccc2)c2ccc([N+](=O)[O-])cc2)C(=O)c2ccccc21 (centres undefined) [listing 2 of 2 here]
IC50 ([2]; Homo sapiens, HL-60, 72 h): > 40 µM
IC50 ([3]; Homo sapiens, SF-295, 72 h): > 40 µM

CCCCNC(C1=C(O)C(=O)c2ccccc2C1=O)c1ccc(Cl)cc1Cl (centres undefined) [listing 2 of 2 here]
IC50 ([2]; Homo sapiens, HL-60, 72 h): > 40 µM
IC50 ([3]; Homo sapiens, SF-295, 72 h): > 40 µM

CCCCNC(C1=C(O)C(=O)c2ccccc2C1=O)c1ccc([N+](=O)[O-])cc1 (centres undefined) [listing 1 of 2 here]
IC50 ([2]; Homo sapiens, HL-60, 72 h): > 40 µM
IC50 ([3]; Homo sapiens, SF-295, 72 h): > 40 µM

CCCCNC(C1=C(O)C(=O)c2ccccc2C1=O)c1ccc([N+](=O)[O-])cc1 (centres undefined) [listing 2 of 2 here]
IC50 ([1]; Homo sapiens, HCT-8, 72 h): > 40 µM
IC50 (MDA-MB-435; Homo sapiens, MDA-MB-435, 72 h): > 40 µM

Cc1ccc(O)c(C(NCc2ccccc2)C2=C(O)C(=O)c3ccccc3C2=O)c1 (centres undefined) [listing 2 of 2 here]
IC50 ([1]; Homo sapiens, HCT-8, 72 h): 12.1 µM
IC50 (MDA-MB-435; Homo sapiens, MDA-MB-435, 72 h): 18.7 µM
IC50 ([3]; sf-295): 14.4 µM

CC(C)(C)OC(=O)NCCCNC(C1=C(O)C(=O)c2ccccc2C1=O)c1ccc(Cl)cc1Cl (centres undefined)
IC50 ([1]; Homo sapiens, HCT-8, 72 h): 21.2 µM
IC50 (MDA-MB-435; Homo sapiens, MDA-MB-435, 72 h): 16.2 µM
IC50 ([3]; Homo sapiens, SF-295, 72 h): > 40 µM
